Assay results from ChEMBL document CHEMBL1201862, “PubChem BioAssay data set” (2004).
Calls of active or inactive are those of the source.

Tests used:
HeLa = test: ATP-based viability loss in HeLa cells – cell-based, CellTiter-Glo luminescence, cherry-pick samples, cytotoxicity control for MITF activator project, dose response (AID 540259); format: functional; conditions: Homo sapiens
CHO = CHO cell viability loss, potency – luminescence, cytotoxicity control for TLR9-MyD88 binding inhibitor project, dose response (AID 588339); format: functional, cell-based, hamster; conditions: Cricetulus griseus;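 further: CHO cells stably coexpressing TLR9 and MyD88 fusions from primary screen; compound exposure lasted 48 hours before viability readout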
Beta Lactamase = Beta Lactamase (Pseudomonas aeruginosa, UniProt Q932Y6); test: BLA reporter interference, concentration series – BLA reporter cells, FRET fluorescence, artefact control for TLR9-MyD88 binding inhibitor project, dose response (AID 588341); format: cell-based;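 further: cell based assay in CHO-K1 cells stably expressing beta-lactamase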
Beta Lactamase, sequence (Q932Y6 whole entry): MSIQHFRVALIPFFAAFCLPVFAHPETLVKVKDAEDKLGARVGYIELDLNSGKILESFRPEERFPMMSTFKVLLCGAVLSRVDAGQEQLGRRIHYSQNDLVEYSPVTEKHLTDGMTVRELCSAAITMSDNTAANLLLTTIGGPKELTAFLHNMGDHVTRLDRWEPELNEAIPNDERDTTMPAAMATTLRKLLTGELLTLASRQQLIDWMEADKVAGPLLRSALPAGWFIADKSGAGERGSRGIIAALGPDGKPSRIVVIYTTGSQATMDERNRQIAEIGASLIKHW

[1] = target: Beta-2 adrenergic receptor (Homo sapiens, UniProt P07550); test: ADRB2 activation measured by internalization – cell-based, FAP fluorogen, flow cytometry, cherry pick 1, dose response (AID 588763); format: functional
Beta-2 adrenergic receptor, sequence (P07550 whole entry): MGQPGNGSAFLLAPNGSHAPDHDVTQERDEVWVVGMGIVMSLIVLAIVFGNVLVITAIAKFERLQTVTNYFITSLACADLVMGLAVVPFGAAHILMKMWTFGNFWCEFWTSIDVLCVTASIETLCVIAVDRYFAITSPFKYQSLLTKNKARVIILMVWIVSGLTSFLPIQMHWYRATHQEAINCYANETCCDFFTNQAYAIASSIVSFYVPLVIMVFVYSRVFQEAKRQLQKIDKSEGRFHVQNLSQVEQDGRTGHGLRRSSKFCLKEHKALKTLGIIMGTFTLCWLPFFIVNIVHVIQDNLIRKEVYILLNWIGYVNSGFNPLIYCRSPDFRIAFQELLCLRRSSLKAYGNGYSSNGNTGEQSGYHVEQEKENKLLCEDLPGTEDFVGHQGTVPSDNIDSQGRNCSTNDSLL

HEK293 = test: cells; format: functional, cell-based; conditions: Homo sapiens
[2] = target: T1, Nuclear receptor subfamily 0 group B member 1 (Homo sapiens, UniProt P51843); test: Luminescence-based cell-based high throughput dose response assay for inhibitors of the orphan nuclear receptor subfamily 0, group B, member 1 (DAX1; NR0B1). [Related pubchem assays (depositor defined):AID504766, AID504790]; format: functional
T1 sequence (P51843 whole entry): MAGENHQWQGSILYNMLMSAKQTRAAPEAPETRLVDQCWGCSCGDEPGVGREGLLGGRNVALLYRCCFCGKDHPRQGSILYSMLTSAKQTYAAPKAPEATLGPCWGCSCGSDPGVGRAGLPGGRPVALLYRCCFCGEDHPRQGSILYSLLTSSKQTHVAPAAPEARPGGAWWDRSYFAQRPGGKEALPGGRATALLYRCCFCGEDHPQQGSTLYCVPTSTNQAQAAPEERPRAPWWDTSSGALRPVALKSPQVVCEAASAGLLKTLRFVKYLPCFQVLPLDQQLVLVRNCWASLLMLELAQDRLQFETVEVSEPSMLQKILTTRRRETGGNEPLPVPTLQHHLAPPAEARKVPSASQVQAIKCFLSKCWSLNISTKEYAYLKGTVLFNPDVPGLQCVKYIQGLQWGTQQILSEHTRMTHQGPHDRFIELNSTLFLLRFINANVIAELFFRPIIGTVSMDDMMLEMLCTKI

[3] = Luminescence Cell-Based Dose Confirmation HTS to Identify Activators of 5'UTR Stem-Loop Driven Alpha-Synuclein mRNA Translation in H4 Neuroglioblastoma Cells. [Related pubchem assays: 1829 (Project Summary), 1814 (Primary HTS)]; format: functional
[4] = Luminescence Cell-Based Dose Response HTS to Identify Activators of Luciferase Translation or Activity in H4 […] Cells. [Related pubchem assays: 1829 (Project Summary), 1814 (Primary HTS)]; format: functional
H4 = test: Luminescence Cell-Based Dose Response HTS to Identify Activators of 5'UTR Stem-Loop Driven Prion Protein mRNA Translation in H4 Neuroglioblastoma Cells. [Related pubchem assays: 1829 (Project Summary), 1814 (Primary HTS)]; format: functional; conditions: Homo sapiens
Large T antigen = Large T antigen (Simian virus 40, UniProt P03070); format: functional, Betapolyomavirus macacae;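 further: Confirmatory-stage PubChem screen for compounds that inhibit SV40 T antigen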
Large T antigen, sequence (P03070 whole entry): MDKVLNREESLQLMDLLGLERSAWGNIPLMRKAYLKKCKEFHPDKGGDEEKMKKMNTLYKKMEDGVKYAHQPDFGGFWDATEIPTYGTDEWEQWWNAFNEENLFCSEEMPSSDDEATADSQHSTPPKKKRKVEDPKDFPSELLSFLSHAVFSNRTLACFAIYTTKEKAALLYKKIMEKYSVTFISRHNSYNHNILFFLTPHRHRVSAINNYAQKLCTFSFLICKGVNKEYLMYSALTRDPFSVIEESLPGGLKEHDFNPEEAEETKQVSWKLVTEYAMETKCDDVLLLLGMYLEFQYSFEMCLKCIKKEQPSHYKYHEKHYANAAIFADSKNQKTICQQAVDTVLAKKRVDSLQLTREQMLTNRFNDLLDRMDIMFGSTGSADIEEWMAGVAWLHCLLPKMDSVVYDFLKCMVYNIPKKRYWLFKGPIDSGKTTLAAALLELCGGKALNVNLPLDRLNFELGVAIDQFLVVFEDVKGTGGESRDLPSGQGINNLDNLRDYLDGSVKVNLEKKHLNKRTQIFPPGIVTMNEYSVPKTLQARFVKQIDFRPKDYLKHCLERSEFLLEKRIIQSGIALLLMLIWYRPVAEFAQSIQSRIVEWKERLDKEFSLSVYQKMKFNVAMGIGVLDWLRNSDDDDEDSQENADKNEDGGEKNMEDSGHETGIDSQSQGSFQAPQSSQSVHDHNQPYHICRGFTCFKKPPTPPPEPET

[5] = target: Glucose-6-phosphate 1-dehydrogenase (Homo sapiens, UniProt P11413); test: inhibition of Homo sapiens G6PD, dose series – biochemical, fluorescence, selectivity assay for P. falciparum G6PD inhibitor project, dose response (AID 504792); format: functional
Glucose-6-phosphate 1-dehydrogenase, sequence (P11413 whole entry): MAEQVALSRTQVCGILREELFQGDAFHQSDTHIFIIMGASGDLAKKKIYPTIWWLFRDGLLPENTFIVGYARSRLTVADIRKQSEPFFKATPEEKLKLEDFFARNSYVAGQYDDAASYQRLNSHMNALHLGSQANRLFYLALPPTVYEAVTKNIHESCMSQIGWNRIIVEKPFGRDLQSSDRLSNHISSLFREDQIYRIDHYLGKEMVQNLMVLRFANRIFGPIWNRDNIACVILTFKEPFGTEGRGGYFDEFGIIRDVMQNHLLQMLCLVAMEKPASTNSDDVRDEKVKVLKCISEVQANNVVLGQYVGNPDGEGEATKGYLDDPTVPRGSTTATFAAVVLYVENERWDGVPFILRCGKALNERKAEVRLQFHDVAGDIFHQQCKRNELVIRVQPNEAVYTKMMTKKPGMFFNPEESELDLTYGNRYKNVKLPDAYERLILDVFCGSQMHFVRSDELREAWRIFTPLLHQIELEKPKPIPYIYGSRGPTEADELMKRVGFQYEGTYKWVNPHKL

Vero = test: viability of Vero cells under compound – cytotoxicity control for flavivirus capping enzyme inhibitors (AID 588742); format: functional; conditions: Chlorocebus sabaeus
INS1 = test: INS-1E survival protection against cytokine death – cell-based, luminescence, retest, dose response (AID 449756); format: functional; conditions: Rattus norvegicus;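 further: cell death triggered by IL-1 beta plus TNF-alpha plus IFN-gamma mixture; protective hits raise ATP signal compared with cytokine alone wells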
Genome polyprotein = Genome polyprotein (dengue virus type 2, UniProt P29990); test: flavivirus cap methylation enzyme inhibition – biochemical, confirmation dose response, primary screen (AID 588689); format: functional
Genome polyprotein, sequence (P29990 2492-3391 limits assumed): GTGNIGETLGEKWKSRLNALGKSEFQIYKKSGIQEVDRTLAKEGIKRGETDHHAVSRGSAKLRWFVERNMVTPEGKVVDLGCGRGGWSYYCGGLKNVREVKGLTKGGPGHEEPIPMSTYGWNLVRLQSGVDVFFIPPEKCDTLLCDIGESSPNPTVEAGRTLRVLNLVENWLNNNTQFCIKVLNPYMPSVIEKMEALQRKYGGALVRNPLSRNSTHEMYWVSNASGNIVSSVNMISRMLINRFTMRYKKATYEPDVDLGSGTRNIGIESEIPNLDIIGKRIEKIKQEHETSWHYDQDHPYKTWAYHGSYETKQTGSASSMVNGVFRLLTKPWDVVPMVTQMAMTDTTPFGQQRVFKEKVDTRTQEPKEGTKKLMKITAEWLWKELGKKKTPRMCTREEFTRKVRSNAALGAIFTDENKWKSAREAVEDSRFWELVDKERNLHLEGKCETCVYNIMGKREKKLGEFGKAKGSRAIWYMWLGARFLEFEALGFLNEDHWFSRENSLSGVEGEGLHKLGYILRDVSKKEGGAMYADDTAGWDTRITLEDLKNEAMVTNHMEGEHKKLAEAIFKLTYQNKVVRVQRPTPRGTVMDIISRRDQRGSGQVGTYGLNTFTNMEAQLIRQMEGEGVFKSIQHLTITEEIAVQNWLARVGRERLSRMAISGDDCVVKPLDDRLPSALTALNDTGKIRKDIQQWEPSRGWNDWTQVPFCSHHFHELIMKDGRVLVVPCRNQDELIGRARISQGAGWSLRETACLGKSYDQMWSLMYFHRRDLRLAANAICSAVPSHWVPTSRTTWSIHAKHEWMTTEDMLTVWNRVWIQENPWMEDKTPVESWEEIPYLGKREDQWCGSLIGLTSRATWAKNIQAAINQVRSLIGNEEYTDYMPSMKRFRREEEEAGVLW

[6] = target: Photoreceptor-specific nuclear receptor (Homo sapiens, UniProt Q9Y5X4); format: functional, cell-based;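 further: CHO-S cells with Gal4-NCOR and VP16-NR2E3 two-hybrid luciferase reporter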
Photoreceptor-specific nuclear receptor, sequence (Q9Y5X4 whole entry, the tested form may be a part): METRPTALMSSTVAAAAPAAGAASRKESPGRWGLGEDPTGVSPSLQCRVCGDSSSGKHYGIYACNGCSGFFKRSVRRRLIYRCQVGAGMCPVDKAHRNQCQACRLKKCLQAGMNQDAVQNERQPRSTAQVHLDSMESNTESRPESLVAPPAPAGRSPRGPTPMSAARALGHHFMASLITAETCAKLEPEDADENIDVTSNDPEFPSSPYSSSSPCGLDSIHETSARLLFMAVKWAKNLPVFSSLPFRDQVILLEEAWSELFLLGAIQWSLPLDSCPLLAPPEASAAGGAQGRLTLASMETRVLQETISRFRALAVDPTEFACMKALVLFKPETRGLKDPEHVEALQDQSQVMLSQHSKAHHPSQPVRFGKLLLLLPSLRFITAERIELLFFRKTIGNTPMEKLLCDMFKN

H9c2 = test: cells; format: functional, cell-based; conditions: Rattus norvegicus, H9c2, Myocardium;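 further: confirmatory concentration-response retest of ultra-high-throughput screening hits for modulation of myocardial damage; cell death induced by hydrogen peroxide oxidative stress; compound pretreatment for 60 min then peroxide exposure for 2 h; potency is for protecting the cells against peroxide damage rather than for killing them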
[7] = target: T2, Ubiquitin-conjugating enzyme E2 N (Homo sapiens, UniProt P61088); format: functional;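 further: Dose-response confirmation in a TR-FRET assay detecting UBC13-driven polyubiquitin chain formation, inhibition measured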
T2 sequence (P61088 whole entry): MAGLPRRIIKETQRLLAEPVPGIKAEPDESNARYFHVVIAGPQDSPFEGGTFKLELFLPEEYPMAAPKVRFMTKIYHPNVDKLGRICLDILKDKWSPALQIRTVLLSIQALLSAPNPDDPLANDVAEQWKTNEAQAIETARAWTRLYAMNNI

Escherichia coli = test: microbe, parasite or virus in culture

For `COC(=O)/C(=C1\Oc2ccc(C(C)(C)C)cc2S1)C(F)(F)F`, the AC50 (HeLa) was 57.7 µM (active).
For `O=C1NC(=O)C2C1C(c1ccc([N+](=O)[O-])cc1)=NN2Cc1ccccc1` (stereo unspecified), the IC50 (CHO) was > 49.8 µM (inactive) and the IC50 (Beta Lactamase) was 10.3 µM (inactive).
With `NC(=O)CC(NC(=O)c1ccc(Br)cc1)c1ccc(N2CCN(c3ccccn3)CC2)c([N+](=O)[O-])c1` (stereo unspecified) the EC50 [1] was 0.213 µM (active).
For `CC(=O)c1csc(Nc2ccccc2Cl)n1`, the IC50 (HEK293) was > 67.6 µM (inactive) and the IC50 [2] was > 67.6 µM (inactive).
In the case of `O=[N+]([O-])c1ccc(-[n+]2ccc3ccccc3c2)c([N+](=O)[O-])c1`, the EC50 [3] is reported as > 120 µM (not active), the EC50 [4] is reported as 11.4 µM (active) and the EC50 (H4) is reported as > 120 µM (not active). For the same compound, the IC50 (Large T antigen) was 79.1 µM (active), the IC50 [5] was > 80 µM (inactive) and the CC50 (Vero) was 24.9 µM (active). For the same compound, the AC50 (INS1) was 3.36 µM (active), the IC50 (Genome polyprotein) was > 100 µM (active) and the EC50 [1] was 10.2 µM (inactive).
For `Cc1ccc(S(=O)(=O)c2ccc([N+](=O)[O-])o2)cc1`, the IC50 (CHO) was 0.745 µM (active), the IC50 (Beta Lactamase) was 11.2 µM (inactive) and the IC50 [6] was 2.9 µM (active).
In the case of `CC(=O)Nc1ccc(S(=O)(=O)N(Cc2cccnc2)Cc2cc3ccccc3nc2O)cc1`, the IC50 (H9c2) is reported as > 79 µM (inactive) and the EC50 [1] is reported as 0.801 µM (active).
In the case of `COC(=O)c1c(-c2ccc(S(C)(=O)=O)cc2)sc2ccc(OC)cc12`, the IC50 [7] is reported as > 20 µM (inactive) and the AC50 (HeLa) is reported as 28 µM (active).
For `CC(=O)NC(Cc1c[nH]c2ccccc12)C(=O)O` (stereo unspecified), the IC50 (HEK293) was > 67.6 µM (inactive) and the IC50 [2] was > 67.6 µM (inactive).
In the case of `Cc1cc(C)c2c(N)c(C(=O)N/N=C/c3ccccc3)sc2n1`, the IC50 (HEK293) is reported as > 67.5 µM (inactive) and the IC50 [2] is reported as > 67.5 µM (inactive).
With `O=C(O)c1ccc(/C=N/Nc2nc3ccccc3[nH]2)cc1` the IC50 (HEK293) was > 67.6 µM (inactive) and the IC50 [2] was > 67.6 µM (inactive).
For `COc1ccc(C(=O)/C=C/c2ccc(N(C)C)cc2)c(OC)c1`, the IC50 (CHO) was > 49.8 µM (inactive) and the IC50 (Beta Lactamase) was 4.71 µM (active).
In the case of `CS(=O)(=O)c1ccc([C@@H](O)[C@@H](CF)NC(=O)C(Cl)Cl)cc1` [FLORFENICOL], the AC50 (Escherichia coli) is reported as 3.83 µM (active).
